The values that follow come from publication PMC6801405, “Discovery of 3-Arylquinoxaline Derivatives as Potential Anti-Dengue Virus Agents” (International Journal of Molecular Sciences, 2019).

Broadly, the melting point is the temperature, or range, at which the solid turns liquid. What is called inhibition is how much of the control response was suppressed. A low value points to a weak effect. One may read the viability as a read-out of living cells in per cent, often relative to untreated cells.

The test system of one data set is DENV2. Put plainly: microbe, parasite or virus in culture. The data set is classed as cell-based, dengue virus. The note with it: for SI (selectivity index, CC50/EC50): CC50 Huh-7 / EC50 DENV; for inhibition at 1 µM / inhibition at 10 µM / EC50: Dengue virus; for inhibition at 1 µM / inhibition at 10 µM: DENV2, 72 h; for inhibition at 1 µM / inhibition at 10 µM / DENV2 % Inhibition at 10 μM: Huh-7-DV-Fluc cells, three days; for inhibition at 10 µM / anti-DENV activity in words / DENV2 % Inhibition at 10 μM: 10 μM; for anti-DENV activity in words: >32% inhibition of DENV-2 at 10 μM considered as active.

Data set [1] in a line: Cytotoxicity assay (XTT method). The following applies: human, mean ± SD; for viability at 72 h, 20 µM / viability at 72 h, 200 µM: Huh-7 cells, XTT; for viability at 72 h, 20 µM: read-out: Huh-7 Cell % viability at 20 μM; for viability at 72 h, 200 µM: read-out: Huh-7 Cell % viability at 200 μM; for CC50 at 72 h: uninfected Huh-7 cells, read-out: CC50 (concentration causing a 50% growth inhibition of uninfected Huh-7 cells). The data set is classed as cell-based, Human. On the procedure: For cytotoxicity tests, run in parallel with antiviral assays, plates at an initial density of 5 × 10^3 cells/well were treated with or without serial dilutions of test compounds. Cell viability was determined after 72 h at 37 °C in a humidified CO2 (5%) atmosphere by the (2,3-bis[2-methyloxy-4-nitro-5-sulfophenyl]-2H-tetrazolium-5-carboxanilide) (XTT) method.
In general terms: Formazan colour is commonly taken as a measure of viable cells.

[2] abbreviates: DENV2, DENV replication, mean ± SD, read-out: EC50 (concentration resulting in a 50% inhibition in virus production).

Each structure is given as a SMILES string. Like-named read-outs stand apart in the source and are kept apart here.

Method for DENV2: Anti-DENV activities were determined by firefly luciferase activity.
Huh-7-DV-Fluc cells were seeded in 24-well plates at a density of 2 × 10^4 cells per well, and treated with the 3-arylquinoxaline compounds at two concentrations (1 and 10 μM) or 0.1% DMSO as control. After three days of incubation, the luciferase activity assay was performed using the Bright-Glo Luciferase assay system (Promega, Madison, WI, USA) according to the manufacturer’s instructions.

Compound `Oc1ccc(Cc2nc3ccccc3nc2-c2ccc(O)cc2)cc1` had a melting point of 184.8 to 185.9 °C.

On to `COc1ccc(-c2cc3ccccc3nc2C(O)c2ccccc2)cc1` (centres unmarked) [Compound 3, 2-(hydroxyphenylmethyl)-3-(4-methoxyphenyl)quinoline, reference compound], for which the “SI (selectivity index, CC50/EC50)” value in the data set with DENV2 is reported as 11.07. Besides, in the data set with DENV2 (mean ± SD), the inhibition at 1 µM came out at 12.4 ± 2.67% and at 10 µM the inhibition was 50.1 ± 3.47%. The EC50 with DENV2 (setting [2]) turned out to be 12.6 ± 2.16 µM. Further, in data set [1], the viability at 72 h, 20 µM came out at 90.3 ± 2.62%; the viability at 72 h, 200 µM is 21.9 ± 3.55%; the CC50 at 72 h is 139 ± 2.32 µM.

As to `O=C(c1ccc(O)cc1)c1nc2ccccc2cc1-c1ccc(O)cc1` [Compound 4, 2-(4-hydroxybenzoyl)-3-(4-hydroxyphenyl)quinoline, reference compound], the “SI (selectivity index, CC50/EC50)” value with DENV2 is 12.44. In the data set on DENV2 (mean ± SD), this compound displayed an inhibition at 1 µM of 11.2 ± 2.31% and an inhibition at 10 µM of 41.2 ± 2.88%. Further, the EC50 in the data set on DENV2 (setting [2]) was 13.2 ± 1.23 µM. Also, in data set [1], the viability at 72 h, 20 µM is 96.6 ± 8.78%; the viability at 72 h, 200 µM is 41.4 ± 5.71%; the CC50 at 72 h is 164 ± 2.32 µM.

With `OC(c1ccccc1)c1nc2ccccc2nc1-c1ccccc1` (centres unmarked) [Compound 15a, Phenyl(3-phenylquinoxalin-2-yl)methanol], the melting point was in the range of 146 to 147 °C. Also, the “anti-DENV activity in words” value in the data set on DENV2 was “inactive”. Further, in the data set on DENV2 (mean ± SD), testing at 1 µM gave an inhibition of 2.13 ± 1.12% and the inhibition at 10 µM was found to be 5.31 ± 1.73%. Further, in data set [1], the viability at 72 h, 20 µM worked out at 105 ± 5.66% and the viability at 72 h, 200 µM was 59.9 ± 8.33%.

For the compound `COc1ccc(C(O)c2nc3ccccc3nc2-c2ccccc2)cc1` (centres unmarked) [Compound 15b, (4-Methoxyphenyl)(3-phenylquinoxalin-2-yl)methanol], the melting point is 166 to 168.6 °C. Besides, the “anti-DENV activity in words” value with DENV2 is reported as “moderately active”. In the data set on DENV2 (mean ± SD), the “DENV2 % Inhibition at 10 μM” value is reported as 48.67 ± 4.71%, the inhibition at 1 µM is 24.3 ± 2.51% and the inhibition at 10 µM is 48%. In data set [1], the viability at 72 h, 20 µM is 103 ± 1.79% and the viability at 72 h, 200 µM is 61.4 ± 2.67%.

As to `OC(c1ccccc1)c1nc2cc(Cl)c(Cl)cc2nc1-c1ccccc1` (centres unmarked) [Compound 16a, (6,7-Dichloro-3-phenylquinoxalin-2-yl)(phenyl)methanol], the melting point was in the range of 136.4 to 136.9 °C. In addition, in the data set on DENV2 (mean ± SD), 1 µM produced 1.97 ± 0.72% inhibition and the inhibition at 10 µM amounted to 6.42 ± 2.97%. Further, in data set [1], the viability at 72 h, 20 µM amounted to 108 ± 8.91% and the viability at 72 h, 200 µM is 20.6 ± 5.37%.

The compound `COc1ccc(C(O)c2nc3cc(Cl)c(Cl)cc3nc2-c2ccccc2)cc1` (centres unmarked) [Compound 16b, (6,7-Dichloro-3-phenylquinoxalin-2-yl)(4-methoxyphenyl)methanol] came in with a melting point of 157.2 to 157.6 °C. Besides, the “anti-DENV activity in words” value in the data set on DENV2 is “inactive”. Moreover, in the data set with DENV2 (mean ± SD), the “DENV2 % Inhibition at 10 μM” value is recorded as 9.46 ± 2.88%, the inhibition at 1 µM turned out to be 2.41 ± 1.48% and the inhibition at 10 µM came to 9%. Moreover, in data set [1], the viability at 72 h, 20 µM was found to be 104 ± 4.18% and the viability at 72 h, 200 µM was 73 ± 9.05%.

The compound `OC(c1ccccc1)c1nc2ccccc2nc1-c1ccc(F)cc1` (centres unmarked) [Compound 17a, [3-(4-Fluorophenyl)quinoxalin-2-yl](phenyl)methanol] registered a melting point of 157.4 to 158 °C. In the data set on DENV2 (mean ± SD), this compound displayed an inhibition at 1 µM of 2.58 ± 0.85% and an inhibition at 10 µM of 4.78 ± 1.93%. Also, in data set [1], the viability at 72 h, 20 µM is 96.3 ± 3.52% and the viability at 72 h, 200 µM was determined as 73.3 ± 6.57%.

Turning to `COc1ccc(C(O)c2nc3ccccc3nc2-c2ccc(F)cc2)cc1` (centres unmarked) [Compound 17b, [3-(4-Fluorophenyl)quinoxalin-2-yl](4-methoxyphenyl)methanol], the melting point is 173 to 174.7 °C. In the data set on DENV2 (mean ± SD), the “DENV2 % Inhibition at 10 μM” value is reported as 22.89 ± 4.54%, the inhibition at 1 µM was found to be 19.2 ± 3.5% and at 10 µM the inhibition was 22%. In addition, in data set [1], the viability at 72 h, 20 µM was found to be 102 ± 1.98% and the viability at 72 h, 200 µM was determined as 101 ± 1.27%.

`OC(c1ccccc1)c1nc2cc(Cl)c(Cl)cc2nc1-c1ccc(F)cc1` (centres unmarked) [Compound 18a, [6,7-Dichloro-3-(4-fluorophenyl)quinoxalin-2-yl](phenyl)methanol] yielded a melting point of 150 to 150.2 °C. In the data set on DENV2 (mean ± SD), this compound displayed an inhibition at 1 µM of 3.41 ± 1.11% and an inhibition at 10 µM of 6.74 ± 1.57%. For the same compound, in data set [1], the viability at 72 h, 20 µM is 102 ± 3.96% and the viability at 72 h, 200 µM is 21.5 ± 1.6%.

The compound `COc1ccc(-c2nc3ccccc3nc2C(O)c2ccc(OC)cc2)cc1` (centres unmarked) [Compound 19b, (4-Methoxyphenyl)[3-(4-methoxyphenyl)quinoxalin-2-yl]methanol] came in with a melting point of 132.4 to 136 °C. Besides, in the data set with DENV2 (mean ± SD), the inhibition at 1 µM was found to be 35.5 ± 4.82% and 10 µM produced 47.7 ± 5.41% inhibition. Also, in data set [1], the viability at 72 h, 20 µM was determined as 96.4 ± 1.24% and the viability at 72 h, 200 µM was 21.3 ± 1.55%.

As to `COc1ccc(-c2nc3cc(Cl)c(Cl)cc3nc2C(O)c2ccccc2)cc1` (centres unmarked) [Compound 20a, [6,7-Dichloro-3-(4-methoxyphenyl)quinoxalin-2-yl](phenyl)methanol], the melting point fell in the range of 156.8 to 157.1 °C. Moreover, in the data set with DENV2 (mean ± SD), the “DENV2 % Inhibition at 10 μM” value was 58.71 ± 2.86%, at 1 µM the inhibition was 16.3 ± 3.42% and the inhibition at 10 µM is above 50%. Also, in the data set on DENV2, the “SI (selectivity index, CC50/EC50)” value is above 35.21. Also, the EC50 in the data set on DENV2 (DENV2, read-out: EC50 (concentration resulting in a 50% inhibition in virus production)) was 5.68 ± 0.81 µM. In data set [1], the viability at 72 h, 20 µM is 99.4 ± 3.31%; the viability at 72 h, 200 µM amounted to 27.1 ± 1.24%; the CC50 at 72 h was above 200 µM.

Compound `COc1ccc(-c2nc3cc(Cl)c(Cl)cc3nc2C(O)c2ccc(OC)cc2)cc1` (centres unmarked) [Compound 20b, [6,7-Dichloro-3-(4-methoxyphenyl)quinoxalin-2-yl](4-methoxyphenyl)methanol] gave a melting point of 144.1 to 144.5 °C. Besides, the “anti-DENV activity in words” value with DENV2 is “inactive”. Further, in the data set with DENV2 (mean ± SD), the inhibition at 1 µM was found to be 2.75 ± 1.69% and the inhibition at 10 µM was found to be 4.39 ± 1.52%. In data set [1], the viability at 72 h, 20 µM worked out at 95.5 ± 3.96% and the viability at 72 h, 200 µM stood at 34.2 ± 4.97%.

Turning to `O=C(c1ccccc1)c1nc2ccccc2nc1-c1ccccc1` [Compound 21a, Phenyl(3-phenylquinoxalin-2-yl)methanone], in the data set on DENV2, the “anti-DENV activity in words” value is “inactive”. In the data set on DENV2 (mean ± SD), this compound registered an inhibition at 1 µM of 2.76 ± 1.55% and an inhibition at 10 µM of 7.98 ± 2.14%. In data set [1], the viability at 72 h, 20 µM is 107 ± 2.3% and the viability at 72 h, 200 µM was found to be 79.5 ± 7.07%.

In turn, `O=C(c1ccccc1)c1nc2cc(Cl)c(Cl)cc2nc1-c1ccccc1` [Compound 22a, (6,7-Dichloro-3-phenylquinoxalin-2-yl)(phenyl)methanone] showed a melting point of 154.3 to 156.8 °C. Also, in the data set on DENV2 (mean ± SD), testing at 1 µM gave an inhibition of 12.7 ± 3.91% and testing at 10 µM gave an inhibition of 19.7 ± 4.17%. For the same compound, in data set [1], the viability at 72 h, 20 µM amounted to 109 ± 1.36% and the viability at 72 h, 200 µM was 103 ± 2.67%.

As to `COc1ccc(C(=O)c2nc3cc(Cl)c(Cl)cc3nc2-c2ccccc2)cc1` [Compound 22b, (6,7-Dichloro-3-phenylquinoxalin-2-yl)(4-methoxyphenyl)methanone], the melting point is 171.9 to 172.3 °C. In the data set on DENV2 (mean ± SD), this compound returned an inhibition at 1 µM of 5.19 ± 2.78% and an inhibition at 10 µM of 24.7 ± 1.89%. Also, in data set [1], the viability at 72 h, 20 µM stood at 103 ± 8.3% and the viability at 72 h, 200 µM was 92 ± 3.08%.

In the data set on DENV2 (mean ± SD), `O=C(c1ccc(O)cc1)c1nc2ccccc2nc1-c1ccc(O)cc1` [Compound 29, (4-Hydroxyphenyl)(3-(4-hydroxyphenyl)quinoxalin-2-yl)methanone] yielded an inhibition at 1 µM of 2.36 ± 1.11% and an inhibition at 10 µM of 4.25 ± 1.39%. Besides, in data set [1], the viability at 72 h, 20 µM was determined as 104 ± 2.91% and the viability at 72 h, 200 µM was 51.9 ± 1.62%.
